This experiment concerns P388 leukemia ip, CD2F1 mice, survival T/C. As to the kind of experiment: NCI In Vivo Anticancer Drug Screen. Data for tumor model P388 Leukemia (intraperitoneal) in CD2F1 (CDF1) mice. Particulars: endpoint: median survival time, higher = longer survival. A digest of the protocol:
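Mice carrying the transplanted tumor received test compound or vehicle. Survival was recorded in each group, and the value is the treated-group measurement divided by that of the vehicle-treated control group.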

[1] abbreviates: dose: 50.0 mg/kg/injection, schedule: Q01DX005 (ip), vehicle: Klucel (hydroxypropylcellulose) (HPC).
[2] abbreviates: dose: 100.0 mg/kg/injection, schedule: Q01DX005 (ip), vehicle: Klucel (hydroxypropylcellulose) (HPC).
Where [3] appears, read: dose: 200.0 mg/kg/injection, schedule: Q01DX005 (ip), vehicle: Klucel (hydroxypropylcellulose) (HPC).
[4] abbreviates: dose: 50.0 mg/kg/injection, schedule: Q01DX005 (ip), vehicle: saline with Tween-80.
Where [5] appears, read: dose: 100.0 mg/kg/injection, schedule: Q01DX005 (ip), vehicle: saline with Tween-80.
[6] abbreviates: dose: 60.0 mg/kg/injection, schedule: Q01DX005 (ip), vehicle: saline with Tween-80.
The mark [7] stands for this setting: dose: 120.0 mg/kg/injection, schedule: Q01DX005 (ip), vehicle: saline with Tween-80.
The mark [8] stands for this setting: dose: 240.0 mg/kg/injection, schedule: Q01DX005 (ip), vehicle: saline with Tween-80.
Setting [9] is: dose: 100.0 mg/kg/injection, schedule: Q01DX001 (ip), vehicle: Klucel (hydroxypropylcellulose) (HPC).
[10] abbreviates: dose: 200.0 mg/kg/injection, schedule: Q01DX001 (ip), vehicle: Klucel (hydroxypropylcellulose) (HPC).
The mark [11] stands for this setting: dose: 50.0 mg/kg/injection, schedule: Q01DX009 (ip), vehicle: suspension in saline.
The mark [12] stands for this setting: dose: 100.0 mg/kg/injection, schedule: Q01DX009 (ip), vehicle: suspension in saline.
[13] abbreviates: dose: 200.0 mg/kg/injection, schedule: Q01DX009 (ip), vehicle: suspension in saline.
Setting [14] is: dose: 200.0 mg/kg/injection, schedule: Q01DX005 (ip), vehicle: saline with Tween-80.

Toxic doses and inconclusive results are not listed.

The text below walks through data of PubChem BioAssay AID330 (DTP/NCI, 2004).

Consider `COc1ccc2c(c1)N(S(=O)(=O)c1ccc(C)cc1)C/C(=C\N1CCN(c3ccccc3)CC1)C2=O`, for which the T/C is 96 % of control under setting [1], 98 % of control under setting [2] and 91 % of control under setting [3].

With `Cc1cc(NCCCCN2CCOCC2)nc2ccc3ccccc3c12`, the T/C runs as follows: under setting [4], 101 % of control; under setting [5], 105 % of control.

With `COC(=O)C(=O)c1c(C(=O)OC)nc2nnc(N)n2c1-c1ccc(Cl)c(Cl)c1`, the T/C is, setting by setting: under setting [6], 96 % of control; under setting [7], 101 % of control; under setting [8], 104 % of control.

As for `COc1ccc(/C=N/Nc2nnc3c4ccccc4c4ncccc4c3n2)cc1`, the T/C is 88 % of control (dose: 100.0 mg/kg/injection, schedule: Q01DX001 (ip), vehicle: saline with Tween-80); 95 % of control (dose: 200.0 mg/kg/injection, schedule: Q01DX001 (ip), vehicle: saline with Tween-80); 106 % of control (dose: 400.0 mg/kg/injection, schedule: Q01DX001 (ip), vehicle: saline with Tween-80).

`COC(=O)N1N=C(c2ccccc2)C(C(=O)OC)(C(=O)OC)c2ccccc21`: the T/C under setting [6] was 93 % of control and the T/C under setting [7] was 87 % of control.

Turning to `C/C=C1\CN2CCc3c([nH]c4ccccc34)C2CC1C1=CN2c3ccccc3C34CCN5CC6=CCOC1C(C6CC53)C24` (configuration not stated), the T/C reads like this: (dose: 2.38 mg/kg/injection, schedule: Q01DX005 (ip), vehicle: Klucel (hydroxypropylcellulose) (HPC)) 95 % of control; (dose: 4.75 mg/kg/injection, schedule: Q01DX005 (ip), vehicle: Klucel (hydroxypropylcellulose) (HPC)) 97 % of control; (dose: 9.5 mg/kg/injection, schedule: Q01DX005 (ip), vehicle: Klucel (hydroxypropylcellulose) (HPC)) 88 % of control.

As for `CSc1nc2[nH]cnc(=S)c2[nH]1`, the T/C runs as follows: (dose: 6.25 mg/kg/injection, schedule: Q04DX003 (ip), vehicle: saline with Tween-80) 90 % of control; (dose: 12.5 mg/kg/injection, schedule: Q04DX003 (ip), vehicle: saline with Tween-80) 90 % of control; (dose: 25.0 mg/kg/injection, schedule: Q04DX003 (ip), vehicle: saline with Tween-80) 109 % of control.

Turning to `COC(=O)N/N=C(/CC1(O)C(=O)Nc2ccc(Br)cc21)c1ccc(Cl)cc1Cl` (configuration not stated), the T/C reads like this: (dose: 100.0 mg/kg/injection, schedule: Q04DX002 (ip), vehicle: saline with Tween-80) 89 % of control; (dose: 200.0 mg/kg/injection, schedule: Q04DX002 (ip), vehicle: saline with Tween-80) 95 % of control; (dose: 400.0 mg/kg/injection, schedule: Q04DX002 (ip), vehicle: saline with Tween-80) 100 % of control.

As for `CCC(CCC(C)C1CCC2C3CC=C4CC(O)CCC4(C)C3CCC12C)C(C)C` (configuration not stated) (tested in a mixture with another compound), the T/C is, setting by setting: (dose: 50.0 mg/kg/injection, schedule: Q01DX009 (ip), vehicle: Klucel (hydroxypropylcellulose) (HPC)) 105 % of control; (dose: 100.0 mg/kg/injection, schedule: Q01DX009 (ip), vehicle: Klucel (hydroxypropylcellulose) (HPC)) 90 % of control.

For the compound `COc1cc(NC(C)=O)c(OC)c2c(=O)cc(C(=O)O)[nH]c12`, the T/C was 93 % of control under setting [9]; 98 % of control under setting [10]; 99 % of control (dose: 400.0 mg/kg/injection, schedule: Q01DX001 (ip), vehicle: Klucel (hydroxypropylcellulose) (HPC)).

For the compound `Nc1c(C(=O)Nc2ccc(NC(=O)c3ccc4c(c3N)C(=O)c3ccccc3C4=O)c3c2C(=O)c2ccccc2C3=O)ccc2c1C(=O)c1ccccc1C2=O`, the T/C was 103 % of control under setting [11], 106 % of control under setting [12] and 103 % of control under setting [13].

In the case of `COc1cccc(-c2nnc(-n3cc(-c4ccccc4)cc3N)s2)c1`, the T/C was 104 % of control (dose: 50.0 mg/kg/injection, schedule: Q01DX001 (ip), vehicle: Klucel (hydroxypropylcellulose) (HPC)); 95 % of control under setting [9]; 89 % of control under setting [10].

Take `[N-]=[N+]=Nc1ccnc2cc(F)ccc12`: the T/C is, setting by setting: under setting [6], 96 % of control; under setting [7], 104 % of control; under setting [8], 95 % of control.

As to `O=C(CN1CCN(c2ccccc2)CC1)n1nnc2ccccc21`, the T/C is, setting by setting: under setting [6], 93 % of control; under setting [7], 87 % of control.

As for `Nc1cc(N)cc(C(=O)c2ccccc2)c1`, the T/C reads like this: (dose: 100.0 mg/kg/injection, schedule: Q01DX009 (ip), vehicle: saline with Tween-80) 95 % of control; (dose: 200.0 mg/kg/injection, schedule: Q01DX009 (ip), vehicle: saline with Tween-80) 95 % of control; (dose: 400.0 mg/kg/injection, schedule: Q01DX009 (ip), vehicle: saline with Tween-80) 90 % of control.

`O=C(O)C[CH2][Sn]([Cl])([Cl])[CH2]CC(=O)O`: the T/C was 98 % of control under setting [1], 98 % of control under setting [2] and 91 % of control under setting [3].

As for `C1CNC(C2=NCCN2)=N1`, the T/C is, setting by setting: under setting [4], 108 % of control; under setting [5], 101 % of control; under setting [14], 97 % of control.

`CCCC[CH2][Pb]([CH2]CCCC)([CH2]CCCC)[O]C(C)=O`: the T/C is 104 % of control (dose: 0.25 mg/kg/injection, schedule: Q01DX009 (ip), vehicle: saline sonified); 109 % of control (dose: 0.5 mg/kg/injection, schedule: Q01DX009 (ip), vehicle: saline sonified); 104 % of control (dose: 1.0 mg/kg/injection, schedule: Q01DX009 (ip), vehicle: saline sonified).

On to `Cc1ccc(N)c(C(=O)Nc2ccc(Br)cc2)c1`, for which the T/C under setting [4] is 101 % of control, the T/C under setting [5] was 101 % of control and the T/C under setting [14] was 95 % of control.

In the case of `CC1=C(CO)C(=O)OC(C(C)C2CCC3C4CC5OC56C(O)C(N5CCCC5)CC(=O)C6(C)C4CCC23C)C1` (configuration not stated), the T/C was 94 % of control (dose: 8.75 mg/kg/injection, schedule: Q01DX005 (ip), vehicle: Klucel (hydroxypropylcellulose) (HPC)); 97 % of control (dose: 17.5 mg/kg/injection, schedule: Q01DX005 (ip), vehicle: Klucel (hydroxypropylcellulose) (HPC)); 99 % of control (dose: 35.0 mg/kg/injection, schedule: Q01DX005 (ip), vehicle: Klucel (hydroxypropylcellulose) (HPC)); 111 % of control (dose: 70.0 mg/kg/injection, schedule: Q01DX005 (ip), vehicle: Klucel (hydroxypropylcellulose) (HPC)); 103 % of control (dose: 140.0 mg/kg/injection, schedule: Q01DX005 (ip), vehicle: Klucel (hydroxypropylcellulose) (HPC)).

On to `O=C(CSc1ccccn1)C1=S=C2C=CC=CN2C1=O`, for which the T/C is, setting by setting: under setting [4], 92 % of control; under setting [5], 95 % of control; under setting [14], 93 % of control.

In the case of `COC(=O)C1(C2CCCCCCC2=O)NC(=S)NC(=O)C1C#N` (configuration not stated), the T/C under setting [6] is 92 % of control, the T/C under setting [7] is 99 % of control and the T/C under setting [8] is 99 % of control.

For the compound `Cc1cc(NC(=S)SCc2ccc(F)cc2)c([N+](=O)[O-])cc1C`, the T/C reads like this: under setting [11], 93 % of control; under setting [12], 90 % of control; under setting [13], 98 % of control.

In the case of `CCCCN(CCCC)C(=O)/C(O)=C(\O)C(=O)N(CCCC)CCCC`, the T/C reads like this: (dose: 25.0 mg/kg/injection, schedule: Q01DX005 (ip), vehicle: saline) 90 % of control; (dose: 50.0 mg/kg/injection, schedule: Q01DX005 (ip), vehicle: saline) 96 % of control; (dose: 100.0 mg/kg/injection, schedule: Q01DX005 (ip), vehicle: saline) 92 % of control; (dose: 200.0 mg/kg/injection, schedule: Q01DX005 (ip), vehicle: saline) 113 % of control.

Consider `CC1(C)OC(=O)N=C1c1cccc(Cl)c1`, for which the T/C by setting is: (dose: 60.0 mg/kg/injection, schedule: Q01DX005 (ip), vehicle: Klucel (hydroxypropylcellulose) (HPC)) 102 % of control; (dose: 120.0 mg/kg/injection, schedule: Q01DX005 (ip), vehicle: Klucel (hydroxypropylcellulose) (HPC)) 101 % of control; (dose: 240.0 mg/kg/injection, schedule: Q01DX005 (ip), vehicle: Klucel (hydroxypropylcellulose) (HPC)) 117 % of control.

`COCC(CN1CCN(c2ccccc2OC)CC1)OC` (configuration not stated): the T/C was 97 % of control (dose: 12.5 mg/kg/injection, schedule: Q01DX009 (ip), vehicle: saline); 98 % of control (dose: 25.0 mg/kg/injection, schedule: Q01DX009 (ip), vehicle: saline); 90 % of control (dose: 50.0 mg/kg/injection, schedule: Q01DX009 (ip), vehicle: saline).
